Reference: PubChem BioAssay AID449762 (Southern Research Specialized Biocontainment Screening …, 2010)
Results filed as inconclusive are left out.

tested on: M. tuberculosis H37Rv growth inhibition, 7H9 media; assay: M. tuberculosis growth inhibition, HTS (AID 449762); conditions: measured here: IC90 growth inhibition;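 further: bacterial growth assessed after seven days of incubation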

`OCC1(Cc2cccc(Cl)c2)CCCN(Cc2ccc3cc(F)ccc3n2)C1` (stereo not drawn) and `COc1cccc(CC2(CO)CCCN(Cc3[nH]c4ccc(C)cc4c3C)C2)c1` (stereo not drawn) are within 1.5-fold of each other in IC90: 52.1 µM for the first, 50.4 µM for the second.

Compared with `N=c1oc2cc(O)ccc2cc1C(=O)Nc1ccc(Br)cc1`, `O=C(OCC(=O)c1c[nH]c2ccccc12)c1cc(Br)ccc1O` is 3.6-fold higher in IC90: 4.2 µM for the first, 15.3 µM for the second.

First: Oc1ccc2ccccc2c1C1Nc2cccc3cccc(c23)N1
Second: Cc1nnc(-c2ccccc2)c(=O)n1/N=C/c1c(O)ccc2ccccc12
The IC90 of the first is higher: over 100 µM for the first, 27.3 µM for the second.

Compared with `CCCCCCCCn1sccc1=O`, `CCOC(=O)CCCc1ccc(/C(C)=N/NC(N)=S)cc1` is 6.9-fold higher in IC90: 2.12 µM for the first, 14.7 µM for the second.

Compared with `Cc1ccc(-n2nc3c(N4CCC(C(=O)NCc5ccccc5C)CC4)nnc(C)c3c2C)cc1`, `CCOC(=O)c1nn(-c2ccc(C)cc2)c2nc(Nc3ccccc3)cc(=O)n12` is 5.4-fold lower in IC90: 69 µM for the first, 12.7 µM for the second.

`CC(C)(C)c1ccc(OCCC(=O)OCC(=O)NC(=O)NC2CCCC2)cc1` and `CC(C)(C)c1ccc(C(=O)NC(=S)NNC(=O)COc2ccccc2)cc1` are within 1.5-fold of each other in IC90: 8.58 µM for the first, 8.56 µM for the second.

Going from `O=C1C(=O)N(c2ccccc2)c2ccccc21` to `O=c1oc2ccccc2c2c1nc(C(F)(F)F)n2-c1ccccc1`, the IC90 rises from 17.7 µM to 31.1 µM (1.8-fold).

`C#C[C@]1(O)CC[C@H]2[C@@H]3CCc4cc(OC5CCCC5)ccc4[C@H]3CC[C@@]21C` and `CN(C(=O)COC(=O)c1ccc([N+](=O)[O-])cc1Cl)C1CCCCC1` are within 1.5-fold of each other in IC90: 48 µM for the first, 65.6 µM for the second.

First: C(C#CCCCCCCCCC[n+]1ccccc1)#CCCCCCCCCC[n+]1ccccc1
Second: N#CCCN(C(=O)COC(=O)CCc1c[nH]c2ccccc12)c1ccc(F)cc1
The IC90 of the first is 16-fold lower: 4.43 µM for the first, 70.8 µM for the second.

Going from `C[Se]C[C@@H](N)C(=O)O` to `CC(NC(=O)CCl)c1ccc(Cl)c(Cl)c1` (stereo not drawn), the IC90 falls from 69.6 µM to 2.91 µM (24-fold).

Compared with `Cc1nc(-c2ccc(Cl)cc2)sc1C1(C)CC(c2ccc(C#N)cc2)=NO1` (stereo not drawn), `Cc1nc(NC(=O)c2ccccc2)sc1C1(C)CC(c2ccc(OC(F)(F)F)cc2)=NO1` (stereo not drawn) is lower in IC90: over 100 µM for the first, 41.1 µM for the second.

First: O=c1c(O)c(-c2cccs2)oc2ccccc12
Second: Cc1[nH]c2ccccc2c1C(=O)COC(=O)c1ccc([N+](=O)[O-])s1
The IC90 of the first is higher: over 100 µM for the first, 2 µM for the second.

Compared with `COc1ccc(C2c3[nH]c4ccccc4c3CCN2C(=O)c2cc3ncccn3n2)c(F)c1` (stereo not drawn), `Cc1ccc(OCc2cc(C(=O)N(C)Cc3cnc4ccccn34)no2)cc1C` is lower in IC90: over 100 µM for the first, 32 µM for the second.

First: Cc1cc(N/N=C/c2ccccc2[N+](=O)[O-])nc(-n2nc(C)cc2C)n1
Second: CC(C)(C)C(=O)/C(=C\c1cccc([N+](=O)[O-])c1)n1cncn1
The IC90 of the first is 2.7-fold higher: 4.72 µM for the first, 1.72 µM for the second.

First: CC(C)C[C@H](NC(=O)c1nc[nH]c1C(=O)NC1CCN(C(=O)OC(C)(C)C)CC1)C(=O)OCc1ccccc1
Second: CC(C)(Oc1ccc(Cl)cc1)C(=O)OCC(=O)N1CCN(c2ccccc2)CC1
The IC90 of the first is 3.9-fold lower: 25.4 µM for the first, 98.2 µM for the second.

Going from `NNc1nc2ccc(Cl)cc2s1` to `O=C(Nc1nc2ccc(SC(F)F)cc2s1)c1ccc(NS(=O)(=O)c2ccc(F)c(F)c2)cc1`, the IC90 falls from 46.6 µM to 24.7 µM (1.9-fold).

`O=C1N=C(N2CCC(Cc3ccccc3)CC2)S/C1=C/c1cn[nH]c1-c1ccccc1` and `CC1(C)Cc2c(C#N)c(N3CCN(C(=O)c4ccccc4)CC3)nc(Cc3ccccc3)c2CO1` cannot be ordered by IC90: over 100 µM for the first, over 100 µM for the second.

`C#CCCc1cscc1/C=[N+](\[O-])c1ccc(C(=O)OCC)cc1` and `CCOC(=O)c1ccc(NC(=O)CCc2nc(-c3ccc(Cl)cc3)no2)cc1` cannot be ordered by IC90: over 100 µM for the first, over 100 µM for the second.

Compared with `CCOc1ccc(N2CCc3c(C)nc(SC)nc32)cc1`, `CCOc1ccc(-n2cc(-c3ccccc3)c3c(=O)[nH]cnc32)cc1` is lower in IC90: over 100 µM for the first, 27.5 µM for the second.

Compared with `Cc1onc(-c2ccccc2Cl)c1C(=O)Oc1cccc2cccnc12`, `CNc1nc(-c2ccccn2)nnc1-c1ccccc1` is 4.5-fold higher in IC90: 4.24 µM for the first, 19 µM for the second.

`O=C(NC1CCCCC1)C(c1cccs1)N(CCCN1CCOCC1)C(=O)c1ccc(-c2ccccc2)[nH]1` (stereo not drawn) and `O=C(Nc1ccccc1)C1=C[C@@H](C2CCCCC2)C[C@@H](OCc2ccc(CO)cc2)O1` are within 1.5-fold of each other in IC90: 55.5 µM for the first, 50.2 µM for the second.

`C1=C(c2c[nH]c3ccccc23)CCNC1` and `N=C1C(c2nc3ccccc3[nH]2)=C(O)CN1NC(=O)c1c[nH]c2ccccc12` are within 1.5-fold of each other in IC90: 39.8 µM for the first, 30.7 µM for the second.

Going from `Cc1ccc(-c2csc3nc4c5ccccc5c(NCCCN5CCOCC5)nn4c(=O)c23)cc1` to `Cc1cccc(CNc2ncnc3ccc(-c4ccc5c(c4)OCCO5)cc23)c1`, the IC90 falls from 27.7 µM to 6.77 µM (4.1-fold).

Going from `CSc1cccc(NC(=O)CCS(=O)(=O)c2cccc3nonc23)c1` to `COc1ccccc1N(C)S(=O)(=O)c1ccc(C(=O)Nc2ccc3nc(C)sc3c2)cc1`, the IC90 rises from 7.46 µM to over 100 µM.

First: COc1cc2c(C(=O)N3CCN(c4cccc(Cl)c4)CC3)cn(CC(C)C)c(=O)c2cc1OC
Second: COc1cc2cc(C(c3nnnn3C(C)(C)C)N3CCc4ccccc43)c(=O)[nH]c2cc1OC (stereo not drawn)
The IC90 of the first is lower: 53.9 µM for the first, over 100 µM for the second.

Going from `CCOC(=O)CSc1nc(N)c(C(=O)Nc2ccc(N(C)C)cc2)s1` to `CCOC(=O)CSc1nn(-c2ccccc2)c(=S)s1`, the IC90 rises from 5.82 µM to 9.22 µM (1.6-fold).

Compared with `COC(=O)c1cccc(C#CC(NP(=O)(c2ccccc2)c2ccccc2)c2ccccc2)c1` (stereo not drawn), `CCc1ccc(NCc2ccc(OC)c(Cn3ccnc3)c2)cc1` is lower in IC90: over 100 µM for the first, 23.9 µM for the second.

Going from `Cc1cc(C(=O)N/N=C\C(Br)=C\c2ccccc2)c(C)o1` to `CCOc1ncccc1C(=O)OCC(=O)N1CCc2ccccc21`, the IC90 falls from 53.8 µM to 15.4 µM (3.5-fold).

Compared with `CCc1cc2c(=O)n(C(C)C(=O)OC3CCCCC3)cnc2s1` (stereo not drawn), `Cc1cc(NC2CCCCC2)nc(-c2ccccc2O)n1` is 1.8-fold higher in IC90: 27.8 µM for the first, 51.3 µM for the second.

Compared with `Cc1cc2c(N=O)c(NO)ccc2[nH]1`, `CCOC(=O)c1nn(-c2ccc(C)c(C)c2)cc1O` is higher in IC90: 15 µM for the first, over 100 µM for the second.

Going from `c1ccc(-c2n[nH]c(-c3ccccn3)n2)cc1` to `Clc1ccc(-c2[nH]ncc2N=Nc2ccccc2)cc1`, the IC90 rises from 19.3 µM to over 100 µM.

Going from `CCOc1ccc(CN(C)CC(O)COC(c2ccc(OC)cc2)c2ccc(OC)cc2)cc1` (stereo not drawn) to `CCCCOc1ccc(-c2nnn(C(C)C(=O)OCC)n2)cc1` (stereo not drawn), the IC90 falls from 13.4 µM to 5.42 µM (2.5-fold).

Compared with `CCOC(=O)CSC1=C(C#N)C(c2ccc(C)cc2)C2=C(CCCC2=O)N1` (stereo not drawn), `Cc1cc(C)c(C(N)=O)c(SCC(=O)c2ccc(Cl)cc2)n1` is lower in IC90: over 100 µM for the first, 63.1 µM for the second.

`C/C(=N\Nc1ccc(S(=O)(=O)N2CCCCC2)cn1)c1cccc(Br)c1` and `CCOC(=O)c1cnc2ccc(OCC)cc2c1N1CCN(c2ccccc2)CC1` cannot be ordered by IC90: over 100 µM for the first, over 100 µM for the second.

Going from `CCCCCNc1nc(N2CCCC2)c2c(c1C#N)CCN(C)C2` to `CCCOC(=O)CSc1nc(N2CCOCC2)c2c(c1C#N)CC(C)(C)OC2`, the IC90 falls from over 100 µM to 37.4 µM.

`Nc1nc(Cl)cc(N2CCC(c3cc(-c4ccc(Cl)cc4Cl)n[nH]3)CC2)n1` and `Cc1ccc(-n2c(Cl)c(Cl)nc(Cl)c2=O)cc1` are within 1.5-fold of each other in IC90: 25.9 µM for the first, 18.3 µM for the second.

Compared with `COC(=O)c1ccc(NC(=S)NC(=O)C2CCC2)cc1`, `CCOC(=O)C(C)Oc1ccc(NC(=O)C(Cl)(Cl)Cl)cc1` (stereo not drawn) is 11-fold lower in IC90: 55.9 µM for the first, 5.08 µM for the second.

First: COc1ccc(C2=NC(=O)/C(=C\c3cc(OC)c(OC)c(OC)c3)O2)cc1
Second: CCOC(=O)c1c(C)[nH]c(N=Nc2ccc(OC)cc2)c1C
The IC90 of the first is 8.9-fold higher: 49.3 µM for the first, 5.55 µM for the second.

Going from `O=C(Nc1nnc(C2=COCCO2)o1)c1ccc(Cc2ccccc2)cc1` to `CCOc1ccc(N(C(=O)/C=C/C(=O)Nc2cc(C)on2)C(C(=O)NC2CCCC2)c2ccccc2C)cc1` (stereo not drawn), the IC90 rises from 9.81 µM to over 100 µM.

Compared with `CN(C)C(=O)C1C2NC(=S)N(c3ccc(Cl)cc3)C1(C)Oc1ccc(Cl)cc12` (stereo not drawn), `CC1=NOC(=O)/C1=C/c1ccc(-c2ccc(Cl)cc2)o1` is 2.6-fold higher in IC90: 26.9 µM for the first, 70.3 µM for the second.

`CC1Cc2cc(-c3csc(NC(=O)Cc4cccs4)n3)ccc2N1S(C)(=O)=O` (stereo not drawn) and `CCCc1cc(-c2nc(N)ncc2-c2ccc3c(c2)OCCCO3)c(O)cc1OC` are within 1.5-fold of each other in IC90: 38 µM for the first, 54.9 µM for the second.

Going from `COc1ccc(Nc2nc(N)c([N+](=O)[O-])c(NC3CCCCC3)n2)cc1` to `CCOC(=O)c1ccc(N=c2sc(C(=O)OC)cc(=O)n2CCCN2CCOCC2)cc1`, the IC90 falls from 18.8 µM to 12 µM (1.6-fold).

`CCOC(=O)C1=NOC(CNc2ncc(C(F)(F)F)cc2Cl)C1` (stereo not drawn) and `CCOC(=O)c1c(NC(=O)C(NCCN(C)C)c2ccccc2)sc2c1CCCC2` (stereo not drawn) are within 1.5-fold of each other in IC90: 14.1 µM for the first, 10.1 µM for the second.

Going from `Cc1c(C(=O)N(C)C)sc2nc(-c3ccccn3)[nH]c(=O)c12` to `CC(C)(C)c1cc(-c2nc(N)nc(N)n2)c(O)c(C(C)(C)C)c1`, the IC90 rises from 16.9 µM to 88.9 µM (5.3-fold).
